The subject of test [1] is Nb6E-E2-PTHR1. As to the kind of experiment: cell signaling assay Nb6E-E2-PTHR1. It counts as cell-based. The following applies: comparison with past work ref [26].
In test [2] the test system is A2AR. The following applies: ref [36]; cited from earlier work.

With PTH(1–34): prototypical PTHR1 ligand, the “potency relative to past work using wild-type PTHR1” value in test [1] is “potency comparable to past work using wild-type PTHR1”.
As for `CCNC(=O)[C@H]1O[C@@H](n2cnc3c(N)nc(NCCc4ccc(CCC(=O)O)cc4)nc32)[C@H](O)[C@@H]1O` [CGS21680], in test [2], the A2AR agonism result is recorded as “potent agonist of A2AR”.
